Assay results: EP4467141A1, “PYRAZOLO-QUINOLINES AS SELECTIVE INHIBITORS OF GENOTOXIC STRESS-INDUCED IKK/NF- KB PATHWAYS FOR CANCER THERAPY” (Max-Delbrück-Centrum für Molekulare Medizin in der …, priority 2023, dated 2024)

Key:
Assay in all cases: Kinase panel study
Assay type in all cases: biochemical
Conditions in all cases: read-out: Percentage of inhibition; for inhibition at 1 µM: 1000nM; for inhibition at 10 µM: 10000nM
SPHK1 = molecular target: T1, SPHK1 (Homo sapiens, UniProt Q9NYA1)
T1 construct: purchased Thermo Fisher Scientific
Procedure, shortened: (§1)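 Kinase inhibition was determined by a contract provider in cell-free ZLyte or Adapta assays. Results are expressed as % inhibition at 10 or 1 µM.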

RET Y791F = molecular target: T2, RET Y791F (Homo sapiens, UniProt P07949, Y791F)
T2 construct: purchased Thermo Fisher Scientific
Procedure, shortened: as §1

PAK6 = molecular target: T3, PAK6 (Homo sapiens, UniProt Q9NQU5)
T3 construct: purchased Thermo Fisher Scientific
Procedure, shortened: as §1

GSK3B (GSK3 beta) = molecular target: T4, GSK3B (GSK3 beta) (Homo sapiens, UniProt P49841)
T4 construct: purchased Thermo Fisher Scientific
Procedure, shortened: as §1

MAPKAPK5 (PRAK) = molecular target: T5, MAPKAPK5 (PRAK) (Homo sapiens, UniProt Q8IW41)
T5 construct: purchased Thermo Fisher Scientific
T5 sequence (Q8IW41 1-473): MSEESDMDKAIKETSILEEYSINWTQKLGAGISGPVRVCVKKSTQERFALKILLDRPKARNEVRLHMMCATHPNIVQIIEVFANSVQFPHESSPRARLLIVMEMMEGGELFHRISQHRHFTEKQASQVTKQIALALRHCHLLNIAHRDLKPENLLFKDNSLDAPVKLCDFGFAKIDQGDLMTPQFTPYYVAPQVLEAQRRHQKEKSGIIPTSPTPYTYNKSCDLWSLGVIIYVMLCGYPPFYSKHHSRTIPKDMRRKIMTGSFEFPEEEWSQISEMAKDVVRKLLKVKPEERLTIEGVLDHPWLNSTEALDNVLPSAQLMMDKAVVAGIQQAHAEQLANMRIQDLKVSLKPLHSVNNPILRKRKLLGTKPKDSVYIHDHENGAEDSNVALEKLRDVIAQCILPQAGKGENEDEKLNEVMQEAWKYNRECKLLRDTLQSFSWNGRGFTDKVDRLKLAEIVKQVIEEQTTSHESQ
Procedure, shortened: as §1

FLT4 (VEGFR3) = molecular target: T6, FLT4 (VEGFR3) (Homo sapiens, UniProt P35916)
T6 construct: purchased Thermo Fisher Scientific
Procedure, shortened: as §1

PEAK1 = molecular target: T7, PEAK1 (Homo sapiens, UniProt Q9H792)
T7 construct: purchased Thermo Fisher Scientific
Procedure, shortened: as §1

[1] = molecular target: T8, PIK3CA E542K/PIK3R1 (p11 0 alpha E542K/p85 alpha) (Homo sapiens, UniProt P42336, E542K)
T8 construct: purchased Thermo Fisher Scientific
Procedure, shortened: as §1

MAP4K4 (HGK) = molecular target: T9, MAP4K4 (HGK) (Homo sapiens, UniProt O95819)
T9 construct: purchased Thermo Fisher Scientific
Procedure, shortened: as §1

RPS6KA2 (RSK3) = molecular target: T10, RPS6KA2 (RSK3) (Homo sapiens, UniProt Q15349)
T10 construct: purchased Thermo Fisher Scientific
Procedure, shortened: as §1

HIPK1 (Myak) = molecular target: T11, HIPK1 (Myak) (Homo sapiens, UniProt Q86Z02)
T11 construct: purchased Thermo Fisher Scientific
Procedure, shortened: as §1

T3 sequence (Q9NQU5 whole entry): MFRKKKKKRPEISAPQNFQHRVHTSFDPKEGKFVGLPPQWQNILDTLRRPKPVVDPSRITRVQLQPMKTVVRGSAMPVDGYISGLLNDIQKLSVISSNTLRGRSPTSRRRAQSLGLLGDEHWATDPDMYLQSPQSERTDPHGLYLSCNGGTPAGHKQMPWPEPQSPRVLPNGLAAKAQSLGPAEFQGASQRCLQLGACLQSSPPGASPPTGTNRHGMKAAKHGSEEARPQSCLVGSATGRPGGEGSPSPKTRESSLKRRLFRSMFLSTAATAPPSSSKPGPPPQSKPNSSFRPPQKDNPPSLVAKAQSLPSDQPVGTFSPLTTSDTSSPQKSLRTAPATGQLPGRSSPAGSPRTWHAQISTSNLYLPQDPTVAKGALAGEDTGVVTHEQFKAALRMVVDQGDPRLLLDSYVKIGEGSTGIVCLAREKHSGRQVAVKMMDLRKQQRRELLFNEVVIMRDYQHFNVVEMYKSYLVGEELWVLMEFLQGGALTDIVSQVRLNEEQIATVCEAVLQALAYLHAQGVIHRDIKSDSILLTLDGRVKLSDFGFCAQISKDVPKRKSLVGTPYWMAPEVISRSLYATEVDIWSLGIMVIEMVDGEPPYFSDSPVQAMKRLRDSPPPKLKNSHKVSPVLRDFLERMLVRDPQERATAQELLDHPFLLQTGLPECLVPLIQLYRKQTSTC
T4 sequence (P49841 whole entry): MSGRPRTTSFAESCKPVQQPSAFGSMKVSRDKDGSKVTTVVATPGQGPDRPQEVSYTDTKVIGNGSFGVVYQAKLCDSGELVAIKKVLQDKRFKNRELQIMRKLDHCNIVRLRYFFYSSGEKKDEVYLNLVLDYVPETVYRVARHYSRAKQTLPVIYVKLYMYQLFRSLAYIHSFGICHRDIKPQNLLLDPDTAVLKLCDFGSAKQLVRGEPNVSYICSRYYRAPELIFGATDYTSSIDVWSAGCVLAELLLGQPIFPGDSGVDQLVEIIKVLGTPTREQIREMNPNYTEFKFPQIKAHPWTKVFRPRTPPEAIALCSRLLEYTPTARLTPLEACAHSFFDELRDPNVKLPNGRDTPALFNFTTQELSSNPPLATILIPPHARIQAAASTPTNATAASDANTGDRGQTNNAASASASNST
T10 sequence (Q15349 whole entry): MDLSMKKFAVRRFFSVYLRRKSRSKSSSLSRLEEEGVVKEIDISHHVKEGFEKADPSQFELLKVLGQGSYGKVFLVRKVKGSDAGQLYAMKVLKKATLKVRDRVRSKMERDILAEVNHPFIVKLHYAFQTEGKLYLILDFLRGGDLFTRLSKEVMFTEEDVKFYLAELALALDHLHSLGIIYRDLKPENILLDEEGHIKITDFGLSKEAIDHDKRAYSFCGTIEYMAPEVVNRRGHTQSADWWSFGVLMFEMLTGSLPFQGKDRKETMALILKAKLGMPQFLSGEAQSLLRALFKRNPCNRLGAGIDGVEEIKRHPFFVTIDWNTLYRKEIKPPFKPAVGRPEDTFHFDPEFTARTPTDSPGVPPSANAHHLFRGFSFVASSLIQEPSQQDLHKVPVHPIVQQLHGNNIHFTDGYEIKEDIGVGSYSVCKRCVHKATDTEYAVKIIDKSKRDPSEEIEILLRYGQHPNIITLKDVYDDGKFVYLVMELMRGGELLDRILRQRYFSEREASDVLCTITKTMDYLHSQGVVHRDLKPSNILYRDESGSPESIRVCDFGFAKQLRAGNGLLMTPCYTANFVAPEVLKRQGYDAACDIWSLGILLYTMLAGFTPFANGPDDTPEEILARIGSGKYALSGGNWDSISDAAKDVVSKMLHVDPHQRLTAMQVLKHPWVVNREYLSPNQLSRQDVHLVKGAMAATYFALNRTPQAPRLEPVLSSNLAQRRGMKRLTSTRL
T1 sequence (Q9NYA1 whole entry): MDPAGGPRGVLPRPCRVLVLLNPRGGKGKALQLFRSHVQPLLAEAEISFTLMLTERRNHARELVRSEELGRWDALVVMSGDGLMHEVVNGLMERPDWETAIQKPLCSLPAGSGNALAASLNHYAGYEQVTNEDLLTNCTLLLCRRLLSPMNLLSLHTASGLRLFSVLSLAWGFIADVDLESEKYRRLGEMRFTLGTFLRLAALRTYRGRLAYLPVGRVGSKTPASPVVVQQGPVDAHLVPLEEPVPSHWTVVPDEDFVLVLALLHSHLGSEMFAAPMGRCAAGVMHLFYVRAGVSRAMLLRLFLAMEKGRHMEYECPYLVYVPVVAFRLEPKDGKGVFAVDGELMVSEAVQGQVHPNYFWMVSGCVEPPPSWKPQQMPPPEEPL
T2 sequence (P07949 29-1114 Y791F): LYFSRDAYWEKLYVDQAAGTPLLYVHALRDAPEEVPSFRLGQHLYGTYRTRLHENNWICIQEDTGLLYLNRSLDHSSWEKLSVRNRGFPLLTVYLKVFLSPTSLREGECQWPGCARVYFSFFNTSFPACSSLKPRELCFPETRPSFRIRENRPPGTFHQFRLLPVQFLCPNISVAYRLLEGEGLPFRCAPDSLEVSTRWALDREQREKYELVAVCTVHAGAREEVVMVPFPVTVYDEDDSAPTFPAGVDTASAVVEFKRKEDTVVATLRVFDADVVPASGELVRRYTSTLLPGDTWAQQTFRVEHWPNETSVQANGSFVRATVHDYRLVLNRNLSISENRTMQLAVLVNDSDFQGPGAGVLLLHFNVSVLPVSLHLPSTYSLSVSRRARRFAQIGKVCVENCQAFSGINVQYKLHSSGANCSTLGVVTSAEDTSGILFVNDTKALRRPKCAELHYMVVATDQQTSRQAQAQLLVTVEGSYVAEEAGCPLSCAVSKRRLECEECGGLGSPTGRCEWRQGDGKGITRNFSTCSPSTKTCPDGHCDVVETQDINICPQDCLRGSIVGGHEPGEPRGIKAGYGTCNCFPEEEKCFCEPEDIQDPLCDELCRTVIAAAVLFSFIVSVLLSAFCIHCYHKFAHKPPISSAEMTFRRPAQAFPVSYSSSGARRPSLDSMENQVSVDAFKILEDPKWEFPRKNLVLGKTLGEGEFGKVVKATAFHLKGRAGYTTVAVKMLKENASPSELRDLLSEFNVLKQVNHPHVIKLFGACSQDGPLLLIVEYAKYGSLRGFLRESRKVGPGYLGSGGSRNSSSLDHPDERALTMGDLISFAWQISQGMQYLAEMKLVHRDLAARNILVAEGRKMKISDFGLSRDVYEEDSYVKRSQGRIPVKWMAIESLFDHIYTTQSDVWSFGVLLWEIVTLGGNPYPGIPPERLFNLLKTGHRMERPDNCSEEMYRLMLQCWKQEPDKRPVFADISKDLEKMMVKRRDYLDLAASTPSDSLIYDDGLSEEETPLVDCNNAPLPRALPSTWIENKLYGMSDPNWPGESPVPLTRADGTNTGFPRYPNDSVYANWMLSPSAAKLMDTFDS
T6 sequence (P35916 25-1363): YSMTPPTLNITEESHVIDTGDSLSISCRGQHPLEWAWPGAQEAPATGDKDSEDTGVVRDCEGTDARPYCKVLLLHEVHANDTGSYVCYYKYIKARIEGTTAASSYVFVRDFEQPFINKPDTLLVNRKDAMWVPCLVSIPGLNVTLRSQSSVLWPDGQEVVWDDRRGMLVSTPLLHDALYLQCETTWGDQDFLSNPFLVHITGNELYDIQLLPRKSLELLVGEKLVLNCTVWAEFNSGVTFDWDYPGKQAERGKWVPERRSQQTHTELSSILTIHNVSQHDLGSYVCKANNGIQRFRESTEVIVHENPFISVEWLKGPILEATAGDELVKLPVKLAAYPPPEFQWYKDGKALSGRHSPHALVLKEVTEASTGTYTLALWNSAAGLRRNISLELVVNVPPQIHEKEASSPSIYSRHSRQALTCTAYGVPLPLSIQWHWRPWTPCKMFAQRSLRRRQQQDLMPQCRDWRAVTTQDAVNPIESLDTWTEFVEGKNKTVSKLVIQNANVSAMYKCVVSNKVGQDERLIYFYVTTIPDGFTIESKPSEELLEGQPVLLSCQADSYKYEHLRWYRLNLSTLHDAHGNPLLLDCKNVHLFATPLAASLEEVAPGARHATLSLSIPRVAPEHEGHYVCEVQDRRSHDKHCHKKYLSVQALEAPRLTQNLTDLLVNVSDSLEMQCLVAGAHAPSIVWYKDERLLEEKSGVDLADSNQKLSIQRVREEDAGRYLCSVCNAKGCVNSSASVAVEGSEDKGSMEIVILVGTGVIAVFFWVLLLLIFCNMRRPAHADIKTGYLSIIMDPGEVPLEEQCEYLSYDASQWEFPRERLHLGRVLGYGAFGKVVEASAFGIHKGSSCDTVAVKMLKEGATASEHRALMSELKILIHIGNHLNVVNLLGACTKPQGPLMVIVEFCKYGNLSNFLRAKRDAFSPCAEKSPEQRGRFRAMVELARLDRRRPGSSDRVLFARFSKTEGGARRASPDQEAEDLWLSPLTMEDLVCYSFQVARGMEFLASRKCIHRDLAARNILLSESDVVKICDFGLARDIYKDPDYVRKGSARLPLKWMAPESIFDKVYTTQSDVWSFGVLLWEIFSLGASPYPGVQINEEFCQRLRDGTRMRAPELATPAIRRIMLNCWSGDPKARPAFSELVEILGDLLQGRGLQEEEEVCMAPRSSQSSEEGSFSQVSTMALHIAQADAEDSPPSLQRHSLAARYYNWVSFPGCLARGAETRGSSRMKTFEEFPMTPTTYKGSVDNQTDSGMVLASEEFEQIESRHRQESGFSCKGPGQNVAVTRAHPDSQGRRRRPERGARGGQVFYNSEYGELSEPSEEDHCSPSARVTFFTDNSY

Row | Compound | inhibition at 1 µM (SPHK1) [%] | inhibition at 10 µM (SPHK1) [%] | inhibition at 1 µM (RET Y791F) [%] | inhibition at 10 µM (RET Y791F) [%] | inhibition at 1 µM (PAK6) [%] | inhibition at 10 µM (PAK6) [%] | inhibition at 1 µM (GSK3B (GSK3 beta)) [%] | inhibition at 10 µM (GSK3B (GSK3 beta)) [%] | inhibition at 1 µM (MAPKAPK5 (PRAK)) [%] | inhibition at 10 µM (MAPKAPK5 (PRAK)) [%] | inhibition at 1 µM (FLT4 (VEGFR3)) [%] | inhibition at 10 µM (FLT4 (VEGFR3)) [%] | inhibition at 1 µM (PEAK1) [%] | inhibition at 10 µM (PEAK1) [%] | inhibition at 1 µM [1] [%] | inhibition at 10 µM [1] [%] | inhibition at 1 µM (MAP4K4 (HGK)) [%] | inhibition at 10 µM (MAP4K4 (HGK)) [%] | inhibition at 1 µM (RPS6KA2 (RSK3)) [%] | inhibition at 10 µM (RPS6KA2 (RSK3)) [%] | other results
1 | COc1ccc2c(c1OC)c(=O)n1c3ccc(O)cc3c3ccnc2c31 [MW01, 5-Hydroxy-10,11-dimethoxy-9H-benzo[c]indolo[3,2,1-ij][1,5]naphthyridin-9-one] | -7 | -3 | 17 | 32 | 5 | -10 | 27 | 52 | 8 | 18 | 13 | 31 | -1 | 16 | 94 | 96 | 64 | 80 | 6 | 11 | inhibition at 1 µM (HIPK1 (Myak)): 21%; inhibition at 10 µM (HIPK1 (Myak)): 47%
2 | COc1ccc2cc3c(N)nn(C(=O)c4cccc(N(C)C)c4)c3nc2c1 [MW05, (3-Amino-7-methoxypyrazolo[3,4-b]quinolin-1-yl)-[3-(dimethylamino)phenyl]methanone] | -2 | 1 | 5 | 7 | 11 | 3 | 6 | 14 | 7 | 7 | 7 | -3 | 2 | 0 | 22 | 68 | 9 | 11 | 5 | 6 | inhibition at 1 µM (HIPK1 (Myak)): -4%; inhibition at 10 µM (HIPK1 (Myak)): -6%
